Test results reported in publication PMC9415646, “Improving Aqueous Solubility and In Vitro Pharmacokinetic Properties of the 3-Nitroimidazo[1,2-a]pyridine Antileishmanial Pharmacophore” (Pharmaceuticals, 2022).
Several values for one entry are separate records, joined by “and”; a condition that tells them apart may be missing. Identical values can stand only once. Like-named read-outs stand apart in the source and are kept apart here.

Experiments:
[1] = test system: T. b. brucei BSF trypomastigotes; test: Antitrypanosomal evaluation on T. b. brucei BSF trypomastigotes (Alamar Blue); type: cell-based; settings: Trypanosoma brucei, trypomastigote blood stream form
Method: The effects of the tested compounds on the growth of T. b. brucei were assessed by Alamar Blue® assay described by Räz et al. T. b. brucei AnTat 1.9 (IMTA, Antwerpen, Belgium) was cultured in MEM with Earle’s salts, supplemented according to the protocol of Baltz et al. with the following modifications: 0.5 mM mercaptoethanol (Sigma Aldrich®, France), 1.5 mM L-cysteine (Sigma Aldrich®), 0.05 mM bathocuproïne sulfate (Sigma Aldrich®) and 20% heat-inactivated horse serum (Gibco®, France), at 37 °C and 5% CO2. They were incubated at an average density of 2000 parasites/100 µL in sterile 96-wells plates (Fisher®, France) with various concentrations of compounds dissolved in DMSO, in duplicate. Appropriate controls suramin, treated with sterile water, and fexinidazole, treated with DMSO on sterile water (reference drugs purchased from Sigma Aldrich, France and Fluorochem, UK) were added to each set of experiments. After a 69 h incubation period at 37 °C, 10 µL of the viability marker Alamar Blue® (Fisher, France) were then added to each well, and the plates were incubated for 5 h. The plates were read in a ENSPIRE microplate reader (PerkinElmer, Waltham, MA, USA) using an excitation wavelength of 530 nm and an emission wavelength of 590 nm. […] EC50 were calculated by nonlinear regression analysis processed on dose-response curves, using GraphPad Prism software (USA). EC50 values were calculated from three separate experiments.

[2] = Parallel artificial membrane permeability assay (PAMPA); type: in vitro ADME; settings: for Papp at 4 h, 100 µM: PAMPA, pH 7.4, read-out: PAMPA GIT at pH 7.4 Pe
[3] = target: T1, Albumin from human plasma (Homo sapiens, UniProt P02768); test: Plasma protein (albumin) binding; type: in vitro ADME
T1 construct: from tissue; host or cells: plasma
Method: Plasma doped with the tested compound was incubated at 37 °C in triplicate in one of the compartments of the insert, the other compartment containing a phosphate buffer solution at pH 7.2. After stirring for 4 h at 300 rpm, a 25 μL aliquot of each compartment was taken and diluted; the dilution solution was adapted so as to obtain an identical matrix for all the compartments after dilution. Parallel, reprocessing of a plasma doped but not incubated was used to assess recovery. The LC-MS used for this study was a Waters® Acquity I-Class/Xevo TQD, equipped with a Waters® Acquity BEH C18 column, 50 × 2.1 mm, […]. The mobile phases were (A) ammonium acetate 10 mM and (B) acetonitrile with 0.1% formic acid. The injection volume was 1 µL and the flow rate 600 µL/min. Chromatographic analysis, total duration of 4 min, was performed along the following gradient: 0 < t < 0.2 min, 2% (B); 0.2 < t < 2 min, linear increase to 98% (B); 2 < t < 2.5 min, 98% (B); 2.5 < t < 2.6 min, linear decrease to 2% (B); 2.6 < t < 4 min, 2% (B). Carbamazepine, oxazepam, warfarin and diclofenac were used as reference drugs and propranolol as internal standard. The unbound fraction (fu) was calculated according to the following formula: fu=APlasma, 4h−APBS,4h/APlasma, 4h×100 . The percentage of recovery was calculated according to the following formula: % Recovery=(VPBS×APBS,4h)+(VPlasma×APlasma,4h)/(VPlasma×APlasma,0h) where A is the ratio of the area under peak of the studied molecule and the area under peak of the internal standard (propranolol 200 nM). V is the volume of solution present in the compartments (VPBS = 350 µL and Vplasma = 200 µL).

[4] = test system: L. infantum axenic amastigotes; parameters: method as in PMID 24080103, PMID 30655943; settings: previously identified hit compounds; cited from earlier work
HepG2 cell line = test system: HepG2 cell line; parameters: method as in PMID 24080103, PMID 30655943; settings: previously identified hit compounds; cited from earlier work
THP1 cell line = test system: THP1 cell line; parameters: method as in PMID 24080103, PMID 30655943; settings: previously identified hit compounds; cited from earlier work
[5] = test system: T. b. brucei BSF trypomastigotes; parameters: method as in PMID 30655943; settings: previously evaluated hit compounds; cited from earlier work

T1 sequence (P02768 25-609): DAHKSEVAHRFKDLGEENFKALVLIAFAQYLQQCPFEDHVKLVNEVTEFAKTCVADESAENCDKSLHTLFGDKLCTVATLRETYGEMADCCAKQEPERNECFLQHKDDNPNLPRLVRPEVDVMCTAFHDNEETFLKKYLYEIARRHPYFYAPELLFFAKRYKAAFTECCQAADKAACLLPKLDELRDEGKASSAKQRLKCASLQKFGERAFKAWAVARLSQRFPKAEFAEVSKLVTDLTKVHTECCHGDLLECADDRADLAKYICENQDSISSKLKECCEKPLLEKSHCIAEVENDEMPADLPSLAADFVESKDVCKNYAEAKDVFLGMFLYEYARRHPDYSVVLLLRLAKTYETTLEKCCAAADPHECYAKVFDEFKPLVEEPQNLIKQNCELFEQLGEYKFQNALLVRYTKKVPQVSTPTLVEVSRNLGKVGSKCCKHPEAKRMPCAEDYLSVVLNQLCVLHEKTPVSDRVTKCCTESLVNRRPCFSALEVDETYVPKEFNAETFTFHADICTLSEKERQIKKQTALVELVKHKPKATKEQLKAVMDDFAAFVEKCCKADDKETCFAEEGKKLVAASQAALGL

**Q.** With `O=[N+]([O-])c1c(CS(=O)(=O)c2ccc(F)cc2)nc2c(Sc3ccc(Cl)cc3)cc(Cl)cn12` [Compound 3c, 6-Chloro-8-[(4-Chlorophenyl)thio]-2-[(4-Fluorophenylsulfonyl)methyl]-3-Nitroimidazo[1,2-a]pyridine] as the molecule, how does the EC50 [1] read?
**A.** 570 ± 20 nM

**Q.** For `O=[N+]([O-])c1c(CS(=O)(=O)c2ccc(C(F)(F)F)cc2)nc2c(Sc3ccc(Cl)cc3)cc(Cl)cn12` [Compound 3d, 6-Chloro-8-[(4-Chlorophenyl)thio]-3-Nitro-2-[(4-Trifluoromethylphenylsulfonyl)methyl]imidazo[1,2-a]pyridine], which EC50 [1] is on record?
**A.** 890 ± 70 nM

**Q.** Which “PAMPA GIT at pH 7.4 Pe” value [2] does the source give for `O=[N+]([O-])c1c(CS(=O)(=O)CCC(F)(F)F)nc2c(Sc3ccc(Cl)cc3)cc(Cl)cn12` [Compound 3i, 6-Chloro-8-[(4-Chlorophenyl)thio]-3-Nitro-2-[(3,3,3-Trifluoropropylsulfonyl)methyl]imidazo[1,2-a]pyridine] here?
**A.** 6.3 nm/s

**Q.** What about the Papp at 4 h, 100 µM [2] of the same molecule?
**A.** 0.63 ± 0.08 ×10⁻⁶ cm/s

**Q.** And the “Albumin Binding” value [3]?
**A.** 99.8% and 99.76%

**Q.** With `O=[N+]([O-])c1c(CS(=O)(=O)c2ccccc2)nc2c(Sc3ccc(Cl)cc3)cc(Cl)cn12` [Hit B, reference compound] as the molecule, how does the “PAMPA GIT at pH 7.4 Pe” value [2] read?
**A.** 4.0 nm/s

**Q.** And the Papp at 4 h, 100 µM [2]?
**A.** 0.4 ± 0.06 ×10⁻⁶ cm/s

**Q.** What about the “Albumin Binding” value [3] of the same molecule?
**A.** 99.95%

**Q.** What about the EC50 [4] of the same molecule?
**A.** 1700 ± 300 nM

**Q.** And the CC50 (HepG2 cell line)?
**A.** > 100000 nM

**Q.** And the CC50 (THP1 cell line)?
**A.** > 62500 nM

**Q.** And the EC50 [5]?
**A.** 950 ± 50 nM

**Q.** For `O=[N+]([O-])c1c(CS(=O)(=O)c2ccc(O)cc2)nc2c(Sc3ccc(Cl)cc3)cc(Cl)cn12` [Compound 3a, 4-{[(6-Chloro-8-[(4-Chlorophenyl)thio]-3-Nitroimidazo[1,2-a]pyridin-2-yl)methyl]sulfonyl}phenol], which EC50 [1] is on record?
**A.** 780 ± 50 nM

**Q.** Which EC50 [1] does the source give for `CSc1ccc(OCc2ncc([N+](=O)[O-])n2C)cc1` [Fexinidazole, reference compound] here?
**A.** 1400 ± 500 nM

**Q.** With `O=[N+]([O-])c1c(CS(=O)(=O)CCC(F)(F)F)nc2c(-c3ccncc3)cc(Cl)cn12` [Compound 7, 6-Chloro-3-Nitro-8-(Pyridin-4-yl)-2-[(3,3,3-Trifluoropropylsulfonyl)methyl]imidazo[1,2-a]pyridine] as the molecule, how does the Papp at 4 h, 100 µM [2] read?
**A.** 31.4 ± 8.72 ×10⁻⁶ cm/s

**Q.** What about the “Albumin Binding” value [3] of the same molecule?
**A.** 88.6% and 88.65%

**Q.** For `O=[N+]([O-])c1c(CS(=O)(=O)c2ccccc2)nc2c(Br)cc(Cl)cn12` [Hit A, 8-Bromo-6-chloro-3-nitro-2-(phenylsulfonylmethyl)imidazo[1,2-a]pyridine, reference compound], which “PAMPA GIT at pH 7.4 Pe” value [2] is on record?
**A.** 173.2 nm/s

**Q.** What about the Papp at 4 h, 100 µM [2] of the same molecule?
**A.** 17.3 ± 3.88 ×10⁻⁶ cm/s

**Q.** What about the “Albumin Binding” value [3] of the same molecule?
**A.** 96.50%

**Q.** And the EC50 [4]?
**A.** 16400 ± 1300 nM

**Q.** What about the CC50 (HepG2 cell line) of the same molecule?
**A.** > 15600 nM

**Q.** What about the CC50 (THP1 cell line) of the same molecule?
**A.** > 100000 nM

**Q.** What about the EC50 [5] of the same molecule?
**A.** 1400 ± 400 nM
